Consider four compounds from paper PMC6959289, “Development of a Biosensor for Detection of Benzoic Acid Derivatives in Saccharomyces cerevisiae” (Frontiers in Bioengineering and Biotechnology, 2020).

The target in the assay is T1, sBAD (formerly sHbaR); LexA-HbaR ligand-binding domain-B112 synthetic transcription factor (Rhodopseudomonas palustris, UniProt Q9RFR5).
T1 construct: expressed in S. cerevisiae CEN.PK 2C-1
T1 sequence (Q9RFR5 1-241 limits assumed): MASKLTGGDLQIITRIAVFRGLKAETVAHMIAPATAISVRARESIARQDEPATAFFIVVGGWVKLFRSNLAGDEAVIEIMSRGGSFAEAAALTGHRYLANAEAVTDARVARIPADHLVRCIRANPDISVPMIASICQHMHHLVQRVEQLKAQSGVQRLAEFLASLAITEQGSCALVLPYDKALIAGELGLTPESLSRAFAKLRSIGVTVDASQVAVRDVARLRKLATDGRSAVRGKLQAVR
The experiment in a line: mCitrine reporter activation in yeast, flow cytometry, dose-response. In kind it is cell-based, Saccharomyces cerevisiae. From the text: mCitrine reporter activation in yeast, flow cytometry, dose-response on sBAD (formerly sHbaR); LexA-HbaR ligand-binding domain-B112 synthetic transcription factor
(In flow cytometry, cells or beads pass a laser one at a time.)
On to `O=C(O)c1ccc(O)cc1` [HBA, 4-hydroxybenzoic acid], for which the EC50 – broadly, the concentration that produces a half-maximal response – is 749 ± 399 µM.
Next, `CC(=O)Oc1ccccc1C(=O)O` [aspirin]: 598 ± 283 µM.
Next, `O=C(O)c1ccccc1` [benzoic acid]: 47 ± 20 µM.
`Nc1ccc(C(=O)O)cc1` [pABA, 4-aminobenzoic acid] showed an EC50 of 169 ± 81 µM.
